# Target: human Melanocortin-4 receptor (MC4R) (Homo sapiens (Human), UniProt P32245)
# Assay: Functional in vitro MC4R antagonist potency assay (cAMP HTRF in CHO cells, αMSH EC80 stimulation)
# Type: cell-based
# Settings: cAMP HTRF in CHO cells expressing human MC4R, 200 nM αMSH (EC80); Kb by Leff-Dougall equation; geometric mean
# Description: The functional in vitro antagonist potency for test compounds was determined by monitoring intracellular cyclic adenosine monophosphate (cAMP) levels in Chinese hamster ovary (CHO—) cells stably expressing the human Melanocortin-4 receptor (MC4R). […] The activated Ga subunit can couple to downstream effectors to regulate the levels of second messengers or cAMP within the cell. Thereby, determination of intracellular cAMP levels allows for pharmacological characterization. Intracellular cAMP levels are quantitated using a homogenous assay utilizing the Homogeneous Time-Resolved Fluorescence (HTRF) technology from CisBio. The method is a competitive immunoassay between native cAMP produced by cells and the cAMP labelled with the acceptor dye, d2. The two entities then compete for binding to a monoclonal anti-cAMP antibody labeled with cryptate. The specific signal is inversely proportional to the concentration of cAMP in the cells.
# Test compounds were solubilized to 30 mM in 100% dimethyl sulfoxide (DMSO) and stored. […]
# (95% O2: 5% CO2) overnight, with micro-clime lids (Labcyte, Cat No. LLS-0310). […] Intracellular cAMP levels were quantified as per Cisbio's protocol (5 uL of D2 and then 5 uL Cryptate, incubated for 1-2 hours at room temperature).
# Data expressed as nM cAMP were then normalized to control wells using Activity Base (IDBS). […]
# Chain of human Melanocortin-4 receptor (MC4R) (P32245 whole entry): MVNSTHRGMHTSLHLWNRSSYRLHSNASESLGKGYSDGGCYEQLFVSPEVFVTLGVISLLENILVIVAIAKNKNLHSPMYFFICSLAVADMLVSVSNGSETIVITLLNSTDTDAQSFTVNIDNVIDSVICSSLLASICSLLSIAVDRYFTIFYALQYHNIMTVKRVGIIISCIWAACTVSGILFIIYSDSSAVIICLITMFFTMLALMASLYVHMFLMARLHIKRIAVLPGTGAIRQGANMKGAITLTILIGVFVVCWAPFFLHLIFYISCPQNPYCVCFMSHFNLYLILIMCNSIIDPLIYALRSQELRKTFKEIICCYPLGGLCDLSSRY
row,Kb [nM],Compound
1,> 92,"COc1cc([C@@H](C)C(=O)N2CC[C@@]3(CCc4cc(Cl)c(C)nc4N3)C2)c(F)cn1 (single isomer, unassigned) [Example 103]"

# Same assay, conditions: read-out: Kb (nM) Antagonist geometric
row,Compound,Kb [nM]
1,"COc1cc([C@@H](C)C(=O)N2CC[C@@]3(CCc4cc(-c5cnccn5)c(C)nc4N3)C2)c(F)cn1 [Example 142, (2R)-2-(5-fluoro-2-methoxypyridin-4-yl)-1-[(2S)-7-methyl-6-(pyrazin-2-yl)-3,4-dihydro-1H-spiro[1,8-naphthyridine-2,3′-pyrrolidin]-1′-yl]propan-1-one]",3.6

# Target: α-melanocyte-stimulating hormone receptor (hMC4R) (Homo sapiens (Human), UniProt P32245)
# Sequence (P32245 whole entry): as above
# Assay: In vitro binding affinity assay using hMC4R (radioligand competition binding, [125I]-(Nle4, D-Phe7)-α-MSH)
# Settings: geometric mean, read-out: Ki (nM) geometric
# Summary of the method: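 Membranes from CHO cells stably expressing hMC4R (2 μg/well) incubated 2 h RT with [125I]-NDP-α-MSH and compound (300 nM-0.01 nM, 1% DMSO); 2 μM α-MSH defined nonspecific binding. Filtration and scintillation counting; Ki from IC50 via Cheng-Prusoff.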
row,Compound,Ki [nM]
1,"COc1cc([C@@H](C)C(=O)N2CC[C@@]3(CCc4cc(-c5cnccn5)c(C)nc4N3)C2)c(F)cn1 [Example 142, (2R)-2-(5-fluoro-2-methoxypyridin-4-yl)-1-[(2S)-7-methyl-6-(pyrazin-2-yl)-3,4-dihydro-1H-spiro[1,8-naphthyridine-2,3′-pyrrolidin]-1′-yl]propan-1-one]",1.8
2,"COc1cc([C@@H](C)C(=O)N2CC[C@@]3(CCc4cc(-c5ccc(C6CC6)nn5)c(C)nc4N3)C2)c(F)cn1 [Example 199, (2R)-1-[(2S)-6-(6-cyclopropylpyridazin-3-yl)-7-methyl-3,4-dihydro-1H-spiro[1,8-naphthyridine-2,3′-pyrrolidin]-1′-yl]-2-(5-fluoro-2-methoxypyridin-4-yl)propan-1-one]",15
3,"COc1cc([C@@H](C)C(=O)N2CC[C@@]3(CCc4cc(-c5ncc(C(F)(F)F)s5)c(C)nc4N3)C2)c(F)cn1 [Example 201, (2R)-2-(5-fluoro-2-methoxypyridin-4-yl)-1-{(2S)-7-methyl-6-[5-(trifluoromethyl)-1,3-thiazol-2-yl]-3,4-dihydro-1H-spiro[1,8-naphthyridine-2,3′-pyrrolidin]-1′-yl}propan-1-one]",110

# Further lines, results first:
row,Ki [nM],Compound
1,5.5,"COc1cc([C@@H](C)C(=O)N2CC[C@@]3(CCc4cc(-c5nc(N6CCOCC6)n(C)n5)c(C)nc4N3)C2)c(F)cn1 [Example 187, (2R)-2-(5-fluoro-2-methoxypyridin-4-yl)-1-{(2S)-7-methyl-6-[1-methyl-5-(morpholin-4-yl)-1H-1,2,4-triazol-3-yl]-3,4-dihydro-1H-spiro[1,8-naphthyridine-2,3′-pyrrolidin]-1′-yl}propan-1-one]"
2,0.41,"COc1cc([C@@H](C)C(=O)N2CC[C@@]3(CCc4cc(-c5nc(C)n(C(F)F)n5)c(C)nc4N3)C2)c(F)cn1 [Example 188, (2R)-1-{(2S)-6-[1-(difluoromethyl)-5-methyl-1H-1,2,4-triazol-3-yl]-7-methyl-3,4-dihydro-1H-spiro[1,8-naphthyridine-2,3′-pyrrolidin]-1′-yl}-2-(5-fluoro-2-methoxypyridin-4-yl)propan-1-one]"
3,1.3,"COc1cc([C@@H](C)C(=O)N2CC[C@@]3(CCc4cc(-c5nc(C(F)F)n(C6CC6)n5)c(C)nc4N3)C2)c(F)cn1 [Example 189, (2R)-1-{(2S)-6-[1-cyclopropyl-5-(difluoromethyl)-1H-1,2,4-triazol-3-yl]-7-methyl-3,4-dihydro-1H-spiro[1,8-naphthyridine-2,3′-pyrrolidin]-1′-yl}-2-(5-fluoro-2-methoxypyridin-4-yl)propan-1-one]"
4,8.1,"COc1cc([C@@H](C)C(=O)N2CC[C@@]3(CCc4cc(-c5ccnc(N6CCOCC6)n5)c(C)nc4N3)C2)c(F)cn1 [Example 196, (2R)-2-(5-fluoro-2-methoxypyridin-4-yl)-1-{(2S)-7-methyl-6-[2-(morpholin-4-yl)pyrimidin-4-yl]-3,4-dihydro-1H-spiro[1,8-naphthyridine-2,3′-pyrrolidin]-1′-yl}propan-1-one]"
5,2.5,"COc1cc([C@@H](C)C(=O)N2CC[C@@]3(CCc4cc(-c5cccc(OC(F)F)n5)c(C)nc4N3)C2)c(F)cn1 [Example 198, (2R)-1-{(2S)-6-[6-(difluoromethoxy)pyridin-2-yl]-7-methyl-3,4-dihydro-1H-spiro[1,8-naphthyridine-2,3′-pyrrolidin]-1′-yl}-2-(5-fluoro-2-methoxypyridin-4-yl)propan-1-one]"
6,0.82,"COc1cc([C@@H](C)C(=O)N2CC[C@@]3(CCc4cc(-c5nccc(C(F)F)n5)c(C)nc4N3)C2)c(F)cn1 [Example 200, (2R)-1-{(2S)-6-[4-(difluoromethyl)pyrimidin-2-yl]-7-methyl-3,4-dihydro-1H-spiro[1,8-naphthyridine-2,3′-pyrrolidin]-1′-yl}-2-(5-fluoro-2-methoxypyridin-4-yl)propan-1-one]"

# — patent US20250084084A1, “Crystalline form of (2R)-2-(5-fluoro-2-methoxypyridin-4-yl)-1-[(2S)-7-methyl-6-(pyrimidin-2-yl)-3,4-dihydro-1H-spiro[1,8-naphthyridine-2,3-pyrrolidin]-1-yl]propan-1-one” (Pfizer Inc., priority 2020, published 2025)
